Data: patent publication US20260217701A1, “SELECTIVE BET INHIBITORS AND USES THEREOF” (Tay Therapeutics Limited, priority 2022, published 2026)
Where “and” joins values, the source holds several entries; their conditions need not be identical. Identical values can stand only once. Like-named read-outs stand apart in the source and are kept apart here. Marks after values point to notes of the source that are not given here.

Tests used:
[1] = test system: IL-22, IFNγ, TNF, IL-17A, IL-12/IL-23p40; experiment: EAE study: serum cytokine analysis (Luminex); assay type: in vivo, C57BI/6 mice
Experimental: Experimental Method H: EAE in animals treated with a BET inhibitor and vehicle. Animals were assigned to the groups outlined in Table 38.
Compound A may be formulated as illustrated in Experimental Method A (see Table 2E.). A 40 mg/mL stock solution of Compound A in DMSO was prepared and aliquots stored at −20° C. On each day of preparation an e.g., 0.75 mL aliquot of thawed stock was diluted with an equal volume of DMSO. The remaining vehicle components were added to provide the highest dose and then diluted with vehicle to provide lower doses. A 30 mg/mL stock solution of FTY720 in ethanol was prepared and stored at −20° C. Daily, the stock solution was diluted with room temperature water to a final dosing concentration of 0.6 mg/mL. Formulated Compound A, FTY720 and vehicle were each at room temperature for dosing.
Female C57BI/6 mice (9 weeks old) were acclimated for seven days prior to study initiation. On Day-1, animals were assigned to groups in a balanced manner to achieve similar average weights across the different groups. Chronic EAE was induced in female C57BI/6 mice following immunization with an emulsion of MOG35-55/CFA on Day 0, followed by an injection of pertussis toxin two hours after the initial immunization. On Day 1, a second injection of pertussis toxin was administered 24 hours after the initial immunization. Mice were injected subcutaneously at two sites on the back with the MOG35-55/CFA emulsion (Hooke Kit™ MOG35-55/CFA Emulsion PTX). The first injection site was located approximately 1 cm caudal of the neckline (upper back), and the second injection site was approximately 2 cm cranial of the base of the tail (lower back). The injection volume was 0.1 mL for each injection. The pertussis toxin was administered at the described times through intraperitoneal injection at a concentration of 85 ng/dose for both injections.
On Day 28, all surviving mice except those in the FTY720 group had blood collected via retro-orbital sinus into serum separator tubes. Serum was isolated, frozen on dry ice, and stored at −80° C. for cytokine analysis. Cytokine analysis was performed using Luminex in serum samples, and the cytokines IL-22, IFNγ, TNF, IL-17A, IL-12/IL-23p40 were assessed.

[2] = Rat PK study #2 (Compound A PO 5 mg/kg, DMSO/PEG-400/water); assay type: in vivo, SD rats
Experimental: For the second rat pharmacokinetic study, the pharmacokinetics of Compound A were assessed in male SD rats. Compound A was prepared in a formulation of 5% DMSO, 40% PEG-400, and 55% Milli-Q water (see formulation in Table 2D) and delivered to animals orally (PO) at a dose of 5 mg/kg. Animals (n=3) were then monitored over a 24-hour period.
Blood samples (~0.2 mL) were collected according to a schedule (0.083, 0.25, 0.5, 1, 2, 4, 8, and 24 h following the initial dosing) by jugular vein by cannulation and EDTA-K2 was used as anticoagulant. Within 30 minutes of collection, the samples were centrifuged at approximately 4000 times g-force for 5 minutes at 4° C. to obtain blood plasma. The plasma samples were immediately divided into two aliquots (~75 μL each), transferred to a cryogenic vial, and stored in a freezer at −75±15° C. prior to analysis.
The concentration of Compound A in plasma samples was determined by liquid chromatography-mass spectrometry (LC-MS/MS) using a Shimadzu HPLC (DGU-405; LC-30AD XS CN; SIL-40AC XSCN; Plate Changer CN; CTO-40C CN; and CBM-40 CN) and an AB API 7500+LC/MS/MS instrument. Samples were analyzed on a Raptor Biphenyl 2.7 μm (50×2.1 mm) column. Solution A in the mobile phase was 95% water (0.1% formic acid) and solution B was 95% acetonitrile in water (0.1% formic acid), injection volume was 15 μL, and flow rate was 0.6 mL/min.
To prepare samples for analysis, serial concentrations were prepared by diluting the stock solution of analyte with a 50% acetonitrile in water solution. 5 μL working solutions (5, 10, 20, 50, 100, 500, 1000, 5000, and 10000 ng/ml) were added to 50 μL of the blank SD rat plasma to achieve calibration standards of ~0.5 to 1000 ng/ml (0.5, 1, 2, 5, 10, 50, 100, 500, and 1000 ng/ml) in a total volume of 55 μL. Five quality control samples at 1 ng/ml, 2 ng/ml, 5 ng/ml 50 ng/ml, and 800 ng/ml for plasma were prepared independently of those used for the calibration curves. These QC samples were prepared on the day of analysis in the same way as calibration standards.
55 μL of standards, 55 μL of QC samples and 55 μL of unknown samples (50 μL of unknown rat plasma with 5 μL of blank solution) were added to 200 μL of acetonitrile containing IS mixture (verapamil) for precipitating protein respectively. The samples were then vortexed for 30 s. After centrifugation at 4° C., 3900 rpm for 15 min, the supernatant was diluted 3 times with water. […] of diluted supernatant was injected into the LC/MS/MS system for quantitative analysis.

[3] = SD rats, PO 5 mg/kg, DMSO/PEG-400/Milli-Q water formulation, individual animals, 5 mg/kg
[4] = SD rats, PO 5 mg/kg, DMSO/PEG-400/Milli-Q water formulation, mean of 3 animals
[5] = male, Sprague-Dawley, rat, plasma, po, 5 mg/kg, SD rats, PO 5 mg/kg, DMSO/PEG-400/Milli-Q water formulation, mean of 3 animals

Cn1cc(-c2ccccc2)c(-c2cn(C)c(=O)c3[nH]c(-c4cnn(C(F)(F)F)c4)cc23)cc1=O [Compound A, 6-methyl-4-(1-methyl-2-oxo-5-phenyl-1,2-dihydropyridin-4-yl)-2-(1-(trifluoromethyl)-1H-pyrazol-4-yl)-1,6-dihydro-7H-pyrrolo[2,3-c]pyridin-7-one]
IFNγ Mean Concentration (pg/mL) and (SEM) ([1]; Compound A 1 mg/kg, Day 28): 1.9 (0.8) pg/mL | IL-12/IL-23p40 Mean Concentration (pg/mL) and (SEM) ([1]; Compound A 1 mg/kg, Day 28): 34.7 (4.8)* pg/mL | IL-17A Mean Concentration (pg/mL) and (SEM) ([1]; Compound A 1 mg/kg, Day 28): 0.5 (0.3) pg/mL | IL-22 Mean Concentration (pg/mL) and (SEM) ([1]; Compound A 1 mg/kg, Day 28): 3.5 (1.4) pg/mL | TNF Mean Concentration (pg/mL) and (SEM) ([1]; Compound A 1 mg/kg, Day 28): 0.8 (0.4) pg/mL | IFNγ Mean Concentration (pg/mL) and (SEM) ([1]; Compound A 3 mg/kg, Day 28): 1.8 (0.4)* pg/mL | IL-12/IL-23p40 Mean Concentration (pg/mL) and (SEM) ([1]; Compound A 3 mg/kg, Day 28): 27.7 (4.9)** pg/mL | IL-17A Mean Concentration (pg/mL) and (SEM) ([1]; Compound A 3 mg/kg, Day 28): 1.6 (0.9) pg/mL | IL-22 Mean Concentration (pg/mL) and (SEM) ([1]; Compound A 3 mg/kg, Day 28): 6.1 (3.0) pg/mL | TNF Mean Concentration (pg/mL) and (SEM) ([1]; Compound A 3 mg/kg, Day 28): 1.4 (0.4) pg/mL | IFNγ Mean Concentration (pg/mL) and (SEM) ([1]; Compound A 10 mg/kg, Day 28): 0.6 (0.1)*** pg/mL | IL-12/IL-23p40 Mean Concentration (pg/mL) and (SEM) ([1]; Compound A 10 mg/kg, Day 28): 17.4 (1.5)*** pg/mL | IL-17A Mean Concentration (pg/mL) and (SEM) ([1]; Compound A 10 mg/kg, Day 28): 0.4 (0.3) pg/mL | IL-22 Mean Concentration (pg/mL) and (SEM) ([1]; Compound A 10 mg/kg, Day 28): 3.0 (0.7) pg/mL | TNF Mean Concentration (pg/mL) and (SEM) ([1]; Compound A 10 mg/kg, Day 28): 0.4 (0.1) pg/mL | Concentration of IL-22, TNF, and IL-17A relative to vehicle ([1]; Day 28): nor were significant changes measured | Concentration of IL-12/IL23p40 ([1]; Day 28, 1 mg/kg, 3 mg/kg, and 10 mg/kg): dose dependent significant decreases | IFNγ concentrations ([1]; Day 28, 3 mg/kg and 10 mg/kg): dose dependent significant decrease | Clinical observations ([2]; 5 mg/kg PO, 24 h, one animal soft feces at 8 h): no abnormalities recorded | Plasma Concentration ([2]; SD rats, PO 5 mg/kg, DMSO/PEG-400/Milli-Q water formulation, 0.083 h, individual animals, 5 mg/kg): 9.76 ng/mL and 0.719 ng/mL and 2.15 ng/mL | Plasma Concentration ([2]; SD rats, PO 5 mg/kg, DMSO/PEG-400/Milli-Q water formulation, 0.25 h, individual animals, 5 mg/kg): 7.42 ng/mL and 5.44 ng/mL and 12.5 ng/mL | Plasma Concentration ([2]; SD rats, PO 5 mg/kg, DMSO/PEG-400/Milli-Q water formulation, 0.5 h, individual animals, 5 mg/kg): 31.9 ng/mL and 15.4 ng/mL and 32.7 ng/mL | Plasma Concentration ([2]; SD rats, PO 5 mg/kg, DMSO/PEG-400/Milli-Q water formulation, 1 h, individual animals, 5 mg/kg): 62.6 ng/mL and 38.4 ng/mL and 101 ng/mL | Plasma Concentration ([2]; SD rats, PO 5 mg/kg, DMSO/PEG-400/Milli-Q water formulation, 2 h, individual animals, 5 mg/kg): 170 ng/mL and 64.8 ng/mL and 272 ng/mL | Plasma Concentration ([2]; SD rats, PO 5 mg/kg, DMSO/PEG-400/Milli-Q water formulation, 4 h, individual animals, 5 mg/kg): 472 ng/mL and 218 ng/mL and 496 ng/mL | Plasma Concentration ([2]; SD rats, PO 5 mg/kg, DMSO/PEG-400/Milli-Q water formulation, 8 h, individual animals, 5 mg/kg): 532 ng/mL and 181 ng/mL and 302 ng/mL | Plasma Concentration ([2]; SD rats, PO 5 mg/kg, DMSO/PEG-400/Milli-Q water formulation, 24 h, individual animals, 5 mg/kg): 2.11 ng/mL and 5.81 ng/mL and 6.35 ng/mL | AUClast [2, 3]: 7070 ng·h/mL and 2643 ng·h/mL and 5058 ng·h/mL | AUClast/D [2, 3]: 1414 mg·h/mL and 529 mg·h/mL and 1012 mg·h/mL | Cmax [2, 3]: 532 ng/mL and 218 ng/mL and 496 ng/mL | F [2, 3]: 81.5% and 30.5% and 58.3% | AUClast/D [2, 4]: 985 mg·h/mL | F [2, 4]: 56.8% | concentration at 1 h ([2]; male, SD, rat, plasma, po, 5 mg/kg, SD rats, PO 5 mg/kg, DMSO/PEG-400/Milli-Q water formulation, 1 h, mean of 3 animals): 67 ng/mL | concentration at 2 h ([2]; male, SD, rat, plasma, po, 5 mg/kg, SD rats, PO 5 mg/kg, DMSO/PEG-400/Milli-Q water formulation, 2 h, mean of 3 animals): 169 ng/mL | concentration at 4 h ([2]; male, SD, rat, plasma, po, 5 mg/kg, SD rats, PO 5 mg/kg, DMSO/PEG-400/Milli-Q water formulation, 4 h, mean of 3 animals): 395 ng/mL | concentration at 8 h ([2]; male, SD, rat, plasma, po, 5 mg/kg, SD rats, PO 5 mg/kg, DMSO/PEG-400/Milli-Q water formulation, 8 h, mean of 3 animals): 338 ng/mL | concentration at 0.083 h ([2]; male, Sprague-Dawley, rat, plasma, po, 5 mg/kg, SD rats, PO 5 mg/kg, DMSO/PEG-400/Milli-Q water formulation, 0.083 h, mean of 3 animals): 4.21 ng/mL | concentration at 0.25 h ([2]; male, Sprague-Dawley, rat, plasma, po, 5 mg/kg, SD rats, PO 5 mg/kg, DMSO/PEG-400/Milli-Q water formulation, 0.25 h, mean of 3 animals): 8.5 ng/mL | concentration at 0.5 h ([2]; male, Sprague-Dawley, rat, plasma, po, 5 mg/kg, SD rats, PO 5 mg/kg, DMSO/PEG-400/Milli-Q water formulation, 0.5 h, mean of 3 animals): 26.7 ng/mL | concentration at 24 h ([2]; male, Sprague-Dawley, rat, plasma, po, 5 mg/kg, SD rats, PO 5 mg/kg, DMSO/PEG-400/Milli-Q water formulation, 24 h, mean of 3 animals): 4.75 ng/mL | Tmax ([2]; male, Sprague-Dawley, rat, plasma, po, 5 mg/kg, SD rats, PO 5 mg/kg, DMSO/PEG-400/Milli-Q water formulation, individual animals): 8 h | AUC(0-t) [2, 5]: 4920 ng·h/mL | Tmax [2, 5]: 5.33 h | Cmax ([2]; male, Sprague-Dawley, rat, plasma, po, 5 mg/kg, SD rats, PO 5 mg/kg, DMSO/PEG-400/Milli-Q water formulation, mean of 3 animals, read-out: Cmax): 415 ng/mL
